Results from US20170246228A1, “METHOD FOR SUPPRESSING PROLIFERATION AND/OR INDUCING APOPTOSIS OF CANCER CELLS” (Maruhachi Muramatsu, Inc., priority 2016, published 2017).

The compounds below were run on MDA-MB-231 cells (assay: Cell proliferation of MDA-MB-231 cells with inhibitors that induce cell-cycle arrest, 3 days of culture). Conditions: absence of S. horneri active component, butyrate 10 and 100 μM, roscovitine 10 and 100 nM, sulforaphane 1 and 10 nM, FIG. 2(A).
Type: cell-based, human
Method: Cells were detached from each culture dishes using 0.2% trpysin plus 0.02% EDTA in Ca^2+/Mg^2+-free PBS for 2 min at 37° C., cells were collected after centrifugation. Cells were resuspended on PBS solution and stained with eosin. Cell numbers were counted under a microscope using a Hemocytometer plate. For each dish, we took the average of two countings.
Data are expressed as the mean±standard deviation (SD). Statistical significance was determined using GraphPad InStat version 3 for Windows XP (GraphPad Software Inc. La Jolla, Calif.). Multiple comparisons were performed by one-way analysis of variance (ANOVA) with Tukey-Kramer multiple comparisons post-test for parametric data as indicated. Data indicated P<0.05 was considered statistically significant.
Breast cancer MDA-MB-231 cells (1×10^5/ml per well) were cultured in a 24-well plate in DMEM containing 10% FBS and 1% P/S for 3 days in the presence or absence of S. horneri active component (50 μg/ml) with or without sodium butyrate (10 and 100 μM), roscovitine (10 and 100 nM) or sulforaphane (1 and 10 nM). Upon completion of culture, the cells were detached from wells, and the number of cells was counted and statistical processing was performed in accordance with the methods described in 2-1-2 and 2-1-3.

| Compound | proliferation of MDA-MB-231 cells in the presence of the inhibitor alone |
| --- | --- |
| CCCC(=O)[O-].[Na+] [butyrate, sodium butyrate] | suppressed |
| CC[C@H](CO)Nc1nc(NCc2ccccc2)c2ncn(C(C)C)c2n1 [roscovitine] | suppressed |
| C[S+]([O-])CCCCN=C=S (stereo not drawn) [sulforaphane] | suppressed |
